Reference: patent US20240066115A1, “DETERMINATION AND USES OF CD8+ T CELL EPITOPES” (priority 2021, published 2024)
Where a SMILES comes first, the peptide text is derived from it.

What was measured:
[1] = system: GL261/wt target cells
[2] = system: GL261/vIII target cells; experiment: Cytotoxic T cell killing assay, T cells from vaccinated mice; settings: 50:1 effector to target ratio
[3] = system: GL261/vIII; experiment: Intracranial glioma model GL261/vIII, peptide vaccination; type: in vivo; settings: candidate peptides as individual vaccines
Description: Y6-pepvIII is effective in an intracranial glioma model. Because of its significant effect on survival in the EGFRvIII subcutaneous tumor model, we selected Y6-pepvIII for in-depth analysis. First, we tested this vaccine in a model that more accurately represented human gliomas. We utilized the commonly employed murine glioma 261 (GL261) intracranial tumor model (30) which was transfected with the EGFRvIII cDNA to yield a line with high expression, GL261/vIII. We explored intracranial injection protocols that would lead to reproducible survival curves and identified conditions where 90% of the animals survived 23-29 days. To compare vaccine efficacy, mice received either Montanide (ISA51) alone, 100 ug of KLH with Montanide, 100 ug of KLH conjugated to pepvIII or Y6-pepvIII in Montanide following the vaccination schedule outlined in FIG. 2A. While KLH treatment had no measurable impact on survival, vaccination with the pepvIII induced a modest but statistically significant 23% increase in survival vs. control mice (FIG. 2B; median survival: Control=26.0 days, KLH=27 days, pepvIII=32 days, p<0.0001).
Intracranial model. Six to 8-week old C57BL/6J mice (Jackson Laboratories, Bar Harbor, ME), had gliomas established by stereotactically injecting 10,000 GL261/vIII […] CT2A/vIII cells into the left striatum (2 mm posterior to the coronal suture and 2 mm lateral to the sagittal suture) on day 0 of the experimental process as previously described. Briefly, mice were anesthetized with isoflurane (4%) and placed in the stereotactic frame. An incision was made, and a burr hole was drilled over the striatum. GL261/vIII or CT2A/vIII cells were injected at the above stated coordinates using a Hamilton Microsyringe controlled by an automated micro-pump injection system. Mice were assigned to treatment groups randomly and tumor progression was monitored by bioluminescent signal as detected by the IVIS imaging system (Caliper Life Sciences, Hopkinton, MA).
For survival experiments, each treatment group consisted of 6 to 15 mice. […]

Molecule	cytotoxic activity against GL261/wt target cells [1]	cytotoxic capacity of T cells of vaccinated mice [2]	increase in survival relative to KLH treated control mice [3] [%]
CC(C)C[C@H](N)C(=O)N[C@@H](CCC(=O)O)C(=O)N[C@@H](CCC(=O)O)C(=O)N[C@@H](CCCCN)C(=O)N[C@@H](CCCCN)C(=O)N[C@@H](Cc1ccc(O)cc1)C(=O)N[C@@H](CC(N)=O)C(=O)N[C@@H](Cc1ccc(O)cc1)C(=O)N[C@H](C(=O)N[C@H](C(=O)N[C@H](C(=O)N[C@@H](CC(=O)O)C(=O)N[C@@H](Cc1c[nH]cn1)C(=O)O)[C@@H](C)O)C(C)C)C(C)C [Y6-pepvIII] (H-LEEKKYNYVVTDH-OH)	no cytotoxic activity	increased cytotoxic capacity	–
CC(C)C[C@H](N)C(=O)N[C@@H](CCC(=O)O)C(=O)N[C@@H](CCC(=O)O)C(=O)N[C@@H](CCCCN)C(=O)N[C@@H](CCCCN)C(=O)NCC(=O)N[C@@H](CC(N)=O)C(=O)N[C@@H](Cc1ccc(O)cc1)C(=O)N[C@H](C(=O)N[C@H](C(=O)N[C@H](C(=O)N[C@@H](CC(=O)O)C(=O)N[C@@H](Cc1c[nH]cn1)C(=O)O)[C@@H](C)O)C(C)C)C(C)C [pepvIII, reference compound]	no cytotoxic activity	–	–
LEEKKNYV	–	–	30
LEEYVVTDH	–	–	54
NYVVTDH	–	–	18
